Measurements published in PMC8155022 (Scientific Reports, 2021).

Legend:
JAK3(h) = target: T1, JAK3(h) (Homo sapiens, UniProt P52333); experiment: Kinase panel; type: biochemical
T1 construct: purchased Cerep (receptors, ion channels, transporters); Eurofins Panlabs (kinases)
Protocol: (§1) Kinase selectivity was conducted by Eurofins Panlabs Inc (St Charles, MO).

[1] = target: hGABAAα1β2γ2-gated Cl− channel (Homo sapiens, UniProt P14867+P18507+P47870); experiment: follow-up functional study; type: cell-based; settings: read-out: IC50 in follow-up functional studies
5-HT5A (h) = target: T2, 5-HT5A (h) (Homo sapiens, UniProt P47898); experiment: Cerep panel; type: binding
T2 construct: purchased Cerep (receptors, ion channels, transporters); Eurofins Panlabs (kinases)
T2 sequence (P47898 whole entry): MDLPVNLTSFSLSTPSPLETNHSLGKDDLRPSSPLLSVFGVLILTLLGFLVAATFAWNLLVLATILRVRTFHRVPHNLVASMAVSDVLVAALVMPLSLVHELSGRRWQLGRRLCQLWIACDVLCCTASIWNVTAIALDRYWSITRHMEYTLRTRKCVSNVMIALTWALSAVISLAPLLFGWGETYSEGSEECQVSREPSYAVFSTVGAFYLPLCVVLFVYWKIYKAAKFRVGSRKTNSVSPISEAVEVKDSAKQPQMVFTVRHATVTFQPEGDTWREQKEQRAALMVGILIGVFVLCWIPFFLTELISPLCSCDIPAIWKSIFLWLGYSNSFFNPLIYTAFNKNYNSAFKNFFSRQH
Protocol: (§2) A panel of 52 different receptors, ion channels and transporters was tested by Cerep, Inc. (Redmond, WA).

D2S (h) = target: T3, D2S (h) (Homo sapiens, UniProt P14416); experiment: Cerep panel; type: binding
T3 construct: purchased Cerep (receptors, ion channels, transporters); Eurofins Panlabs (kinases)
T3 sequence (P14416 1-414 isoform P14416-2): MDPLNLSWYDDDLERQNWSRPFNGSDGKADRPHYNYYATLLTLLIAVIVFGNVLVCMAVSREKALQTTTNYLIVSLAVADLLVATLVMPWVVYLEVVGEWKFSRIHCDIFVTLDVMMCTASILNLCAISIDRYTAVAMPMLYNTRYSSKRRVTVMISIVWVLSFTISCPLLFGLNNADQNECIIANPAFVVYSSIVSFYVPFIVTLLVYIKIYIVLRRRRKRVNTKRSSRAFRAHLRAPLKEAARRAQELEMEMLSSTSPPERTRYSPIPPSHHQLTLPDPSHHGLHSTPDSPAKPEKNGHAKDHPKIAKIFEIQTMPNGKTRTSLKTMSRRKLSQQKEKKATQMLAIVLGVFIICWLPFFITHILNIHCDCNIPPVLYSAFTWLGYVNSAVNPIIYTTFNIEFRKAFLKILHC
Protocol: as §2

AR = target: T4, AR (Homo sapiens, UniProt P10275); experiment: nuclear receptor cellular GAL4 reporter assay; type: cell-based; settings: agonist and antagonist mode; read-out: potency in agonist and antagonist mode
T4 construct: expressed in transfected cells

ADRA1A = ADRA1A (Homo sapiens, UniProt P35348); experiment: GPCR panel, cAMP or calcium FLIPR assays; type: cell-based
Protocol: (§3) 28 GPCRs were evaluated through cAMP or calcium FLIPR assays[67].

M3 = M3 (Homo sapiens, UniProt P20309); experiment: GPCR panel, cAMP or calcium FLIPR assays; type: cell-based
Sequence of M3 (P20309 whole entry): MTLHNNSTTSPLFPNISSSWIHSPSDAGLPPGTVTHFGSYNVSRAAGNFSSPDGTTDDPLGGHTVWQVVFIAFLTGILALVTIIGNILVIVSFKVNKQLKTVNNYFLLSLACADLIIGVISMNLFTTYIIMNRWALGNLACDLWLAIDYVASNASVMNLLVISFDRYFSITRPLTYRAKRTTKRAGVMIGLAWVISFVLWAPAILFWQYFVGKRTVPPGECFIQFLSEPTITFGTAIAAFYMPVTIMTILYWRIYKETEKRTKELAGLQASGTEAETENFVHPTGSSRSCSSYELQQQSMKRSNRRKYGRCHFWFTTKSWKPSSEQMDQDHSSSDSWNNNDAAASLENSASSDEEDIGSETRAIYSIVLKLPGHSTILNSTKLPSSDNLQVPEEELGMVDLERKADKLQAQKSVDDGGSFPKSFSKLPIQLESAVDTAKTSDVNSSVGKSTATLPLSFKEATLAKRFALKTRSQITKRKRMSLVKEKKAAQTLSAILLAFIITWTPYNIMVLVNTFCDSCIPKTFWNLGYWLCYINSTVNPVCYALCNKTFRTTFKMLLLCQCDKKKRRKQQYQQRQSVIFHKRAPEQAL
Protocol: as §3

5HT1B = 5HT1B (Homo sapiens, UniProt P28222); experiment: GPCR panel, cAMP or calcium FLIPR assays; type: cell-based
Protocol: (§4) 28 GPCRs were evaluated through cAMP or calcium FLIPR assays[67]. A panel of 52 different receptors, ion channels and transporters was tested by Cerep, Inc. (Redmond, WA).

ETA = ETA (Homo sapiens, UniProt P25101); experiment: GPCR panel, cAMP or calcium FLIPR assays; type: cell-based
Sequence of ETA (P25101 21-427): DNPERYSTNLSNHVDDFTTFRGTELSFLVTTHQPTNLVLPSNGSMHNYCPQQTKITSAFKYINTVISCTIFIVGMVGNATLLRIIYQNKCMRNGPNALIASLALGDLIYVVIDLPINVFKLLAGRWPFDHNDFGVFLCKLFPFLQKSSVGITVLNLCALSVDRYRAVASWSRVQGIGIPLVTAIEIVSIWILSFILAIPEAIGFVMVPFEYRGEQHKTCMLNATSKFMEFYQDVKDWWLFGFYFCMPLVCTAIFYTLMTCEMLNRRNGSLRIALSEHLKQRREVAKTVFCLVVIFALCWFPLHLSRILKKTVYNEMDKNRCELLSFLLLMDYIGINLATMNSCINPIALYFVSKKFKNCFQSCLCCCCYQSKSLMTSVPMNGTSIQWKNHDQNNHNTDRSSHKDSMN
Protocol: as §3

VDR = target: T5, VDR (Homo sapiens, UniProt P11473); experiment: nuclear receptor cellular GAL4 reporter assay; type: cell-based; settings: agonist and antagonist mode; read-out: potency in agonist and antagonist mode
T5 construct: expressed in transfected cells

Cl- channel = experiment: Cerep panel; type: binding
Protocol: as §2

5HT7 = 5HT7 (Homo sapiens, UniProt P34969); experiment: GPCR panel, cAMP or calcium FLIPR assays; type: cell-based
Protocol: as §3

dogs = experiment: chronic dosing up to 9 months in dogs; type: in vivo; settings: dog, data not shown, reversible
Excerpt: This is consistent with the reported physiological role of RORγt as a critical molecule in controlling the survival of thymocytes[7],[66]. JNJ-61803534-induced thymocyte apoptosis was reversible and was deemed non-adverse alterations.

5HT2B = 5HT2B (Homo sapiens, UniProt P41595); experiment: Cerep panel; type: binding; set-up: purchased Cerep (receptors, ion channels, transporters); Eurofins Panlabs (kinases)
Protocol: as §2

Blk(h) = target: T6, Blk(h) (Homo sapiens, UniProt P51451); experiment: Kinase panel; type: biochemical
T6 construct: purchased Cerep (receptors, ion channels, transporters); Eurofins Panlabs (kinases)
Protocol: as §1

5HT2A = 5HT2A (Homo sapiens, UniProt P28223); experiment: GPCR panel, cAMP or calcium FLIPR assays; type: cell-based
Protocol: as §4

NE-T transporter (h) = target: T7, NE-T transporter (h) (Homo sapiens, UniProt P23975); experiment: Cerep panel; type: binding
T7 construct: purchased Cerep (receptors, ion channels, transporters); Eurofins Panlabs (kinases)
Protocol: as §2

IKKβ(h) = target: T8, IKKβ(h) (Homo sapiens, UniProt O14920); experiment: Kinase panel; type: biochemical
T8 construct: purchased Cerep (receptors, ion channels, transporters); Eurofins Panlabs (kinases)
T8 sequence (O14920 whole entry): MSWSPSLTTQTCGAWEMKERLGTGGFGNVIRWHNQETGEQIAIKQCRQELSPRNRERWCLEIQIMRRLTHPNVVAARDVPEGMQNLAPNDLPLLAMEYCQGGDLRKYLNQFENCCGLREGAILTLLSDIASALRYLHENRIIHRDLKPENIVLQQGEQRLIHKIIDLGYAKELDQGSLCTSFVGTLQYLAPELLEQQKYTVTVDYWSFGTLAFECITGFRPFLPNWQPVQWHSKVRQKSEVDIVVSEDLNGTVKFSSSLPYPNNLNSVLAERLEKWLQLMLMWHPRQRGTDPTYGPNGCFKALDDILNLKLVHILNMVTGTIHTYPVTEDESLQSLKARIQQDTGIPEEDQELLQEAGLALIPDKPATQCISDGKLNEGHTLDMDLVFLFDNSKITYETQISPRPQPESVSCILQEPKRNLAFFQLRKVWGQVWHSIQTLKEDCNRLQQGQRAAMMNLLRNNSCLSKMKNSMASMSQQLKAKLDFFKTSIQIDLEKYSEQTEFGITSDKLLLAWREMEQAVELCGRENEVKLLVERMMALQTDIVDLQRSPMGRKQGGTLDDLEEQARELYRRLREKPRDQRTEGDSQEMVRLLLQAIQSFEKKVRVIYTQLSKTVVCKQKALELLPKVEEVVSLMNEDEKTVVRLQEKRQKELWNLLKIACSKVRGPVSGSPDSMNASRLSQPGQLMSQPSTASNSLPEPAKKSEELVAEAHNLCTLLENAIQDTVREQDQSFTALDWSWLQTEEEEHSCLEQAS
Protocol: as §1

D1 = D1 (Homo sapiens, UniProt P21728); experiment: GPCR panel, cAMP or calcium FLIPR assays; type: cell-based
Sequence of D1 (P21728 whole entry): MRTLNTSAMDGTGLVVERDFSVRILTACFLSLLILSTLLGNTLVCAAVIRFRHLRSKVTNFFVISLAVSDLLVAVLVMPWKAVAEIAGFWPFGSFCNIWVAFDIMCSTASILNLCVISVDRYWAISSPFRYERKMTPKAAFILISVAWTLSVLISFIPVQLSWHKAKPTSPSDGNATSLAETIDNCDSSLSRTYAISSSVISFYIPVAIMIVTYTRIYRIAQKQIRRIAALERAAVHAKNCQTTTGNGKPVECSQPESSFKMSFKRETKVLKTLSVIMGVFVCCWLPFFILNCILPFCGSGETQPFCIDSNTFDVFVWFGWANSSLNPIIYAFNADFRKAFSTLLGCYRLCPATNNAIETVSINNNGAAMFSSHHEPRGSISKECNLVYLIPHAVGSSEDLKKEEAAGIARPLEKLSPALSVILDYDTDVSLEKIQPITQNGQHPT
Protocol: as §3

A1 (h) = target: T9, A1 (h) (Homo sapiens, UniProt P30542); experiment: Cerep panel; type: binding
T9 construct: purchased Cerep (receptors, ion channels, transporters); Eurofins Panlabs (kinases)
T9 sequence (P30542 whole entry): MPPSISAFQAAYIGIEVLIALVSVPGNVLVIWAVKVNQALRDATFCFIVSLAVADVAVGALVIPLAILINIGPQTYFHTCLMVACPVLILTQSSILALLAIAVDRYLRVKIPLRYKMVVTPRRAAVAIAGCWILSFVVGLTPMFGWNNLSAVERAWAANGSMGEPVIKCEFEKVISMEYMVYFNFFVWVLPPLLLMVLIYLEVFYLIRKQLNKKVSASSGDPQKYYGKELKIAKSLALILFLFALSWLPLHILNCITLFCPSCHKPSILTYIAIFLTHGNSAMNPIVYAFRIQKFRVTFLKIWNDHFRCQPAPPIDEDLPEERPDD
Protocol: as §2

ADRB2 = ADRB2 (Homo sapiens, UniProt P07550); experiment: GPCR panel, cAMP or calcium FLIPR assays; type: cell-based
Protocol: as §3

5-HT2A (h) = target: T10, 5-HT2A (h) (Homo sapiens, UniProt P28223); experiment: Cerep panel; type: binding
T10 construct: purchased Cerep (receptors, ion channels, transporters); Eurofins Panlabs (kinases)
Protocol: as §2

PKCα(h) = target: T11, PKCα(h) (Homo sapiens, UniProt P17252); experiment: Kinase panel; type: biochemical
T11 construct: purchased Cerep (receptors, ion channels, transporters); Eurofins Panlabs (kinases)
Protocol: as §1

FXR = target: T12, FXR (Homo sapiens, UniProt Q96RI1); experiment: nuclear receptor cellular GAL4 reporter assay; type: cell-based; settings: agonist and antagonist mode; read-out: potency in agonist and antagonist mode
T12 construct: expressed in transfected cells

RARα = target: T13, RARα (Homo sapiens, UniProt P10276); experiment: nuclear receptor cellular GAL4 reporter assay; type: cell-based; settings: agonist and antagonist mode; read-out: potency in agonist and antagonist mode
T13 construct: expressed in transfected cells

NEK2(h) = target: T14, NEK2(h) (Homo sapiens, UniProt P51955); experiment: Kinase panel; type: biochemical
T14 construct: purchased Cerep (receptors, ion channels, transporters); Eurofins Panlabs (kinases)
Protocol: as §1

5HT6 = 5HT6 (Homo sapiens, UniProt P50406); experiment: GPCR panel, cAMP or calcium FLIPR assays; type: cell-based
Sequence of 5HT6 (P50406 whole entry): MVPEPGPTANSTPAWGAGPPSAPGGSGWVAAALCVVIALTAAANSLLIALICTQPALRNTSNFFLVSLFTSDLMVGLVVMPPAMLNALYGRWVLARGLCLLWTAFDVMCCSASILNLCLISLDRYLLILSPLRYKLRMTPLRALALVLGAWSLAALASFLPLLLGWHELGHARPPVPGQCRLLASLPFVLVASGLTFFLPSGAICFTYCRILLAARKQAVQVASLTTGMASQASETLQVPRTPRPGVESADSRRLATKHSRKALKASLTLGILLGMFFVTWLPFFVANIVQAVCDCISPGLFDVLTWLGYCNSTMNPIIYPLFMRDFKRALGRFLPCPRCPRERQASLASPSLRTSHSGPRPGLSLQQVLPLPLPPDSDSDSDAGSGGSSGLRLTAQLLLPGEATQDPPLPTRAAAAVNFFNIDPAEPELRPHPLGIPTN
Protocol: as §3

PKCβI(h) = target: T15, PKCβI(h) (Homo sapiens, UniProt P05771); experiment: Kinase panel; type: biochemical
T15 construct: purchased Cerep (receptors, ion channels, transporters); Eurofins Panlabs (kinases)
Protocol: as §1

5-HT7 (h) = target: T16, 5-HT7 (h) (Homo sapiens, UniProt P34969); experiment: Cerep panel; type: binding
T16 construct: purchased Cerep (receptors, ion channels, transporters); Eurofins Panlabs (kinases)
Protocol: as §2

CCKA (h) (CCK1) = target: T17, CCKA (h) (CCK1) (Homo sapiens, UniProt P32238); experiment: Cerep panel; type: binding
T17 construct: purchased Cerep (receptors, ion channels, transporters); Eurofins Panlabs (kinases)
Protocol: as §2

A3 (h) = target: T18, A3 (h) (Homo sapiens, UniProt P0DMS8); experiment: Cerep panel; type: binding
T18 construct: purchased Cerep (receptors, ion channels, transporters); Eurofins Panlabs (kinases)
T18 sequence (P0DMS8 1-318): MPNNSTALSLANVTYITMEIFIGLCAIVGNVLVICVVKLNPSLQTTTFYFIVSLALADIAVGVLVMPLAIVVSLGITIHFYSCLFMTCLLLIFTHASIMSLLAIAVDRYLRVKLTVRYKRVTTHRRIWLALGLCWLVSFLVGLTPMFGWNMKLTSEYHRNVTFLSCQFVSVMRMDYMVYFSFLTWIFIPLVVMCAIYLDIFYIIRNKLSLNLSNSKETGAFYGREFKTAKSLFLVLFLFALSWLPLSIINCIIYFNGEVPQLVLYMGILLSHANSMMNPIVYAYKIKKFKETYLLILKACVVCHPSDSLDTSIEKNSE
Protocol: 28 GPCRs were evaluated through cAMP or calcium FLIPR assays[67]. A panel of 52 different receptors, ion channels and transporters was tested by Cerep, Inc. (Redmond, WA). Kinase selectivity was conducted by Eurofins Panlabs Inc (St Charles, MO).

T1 sequence (P52333 whole entry): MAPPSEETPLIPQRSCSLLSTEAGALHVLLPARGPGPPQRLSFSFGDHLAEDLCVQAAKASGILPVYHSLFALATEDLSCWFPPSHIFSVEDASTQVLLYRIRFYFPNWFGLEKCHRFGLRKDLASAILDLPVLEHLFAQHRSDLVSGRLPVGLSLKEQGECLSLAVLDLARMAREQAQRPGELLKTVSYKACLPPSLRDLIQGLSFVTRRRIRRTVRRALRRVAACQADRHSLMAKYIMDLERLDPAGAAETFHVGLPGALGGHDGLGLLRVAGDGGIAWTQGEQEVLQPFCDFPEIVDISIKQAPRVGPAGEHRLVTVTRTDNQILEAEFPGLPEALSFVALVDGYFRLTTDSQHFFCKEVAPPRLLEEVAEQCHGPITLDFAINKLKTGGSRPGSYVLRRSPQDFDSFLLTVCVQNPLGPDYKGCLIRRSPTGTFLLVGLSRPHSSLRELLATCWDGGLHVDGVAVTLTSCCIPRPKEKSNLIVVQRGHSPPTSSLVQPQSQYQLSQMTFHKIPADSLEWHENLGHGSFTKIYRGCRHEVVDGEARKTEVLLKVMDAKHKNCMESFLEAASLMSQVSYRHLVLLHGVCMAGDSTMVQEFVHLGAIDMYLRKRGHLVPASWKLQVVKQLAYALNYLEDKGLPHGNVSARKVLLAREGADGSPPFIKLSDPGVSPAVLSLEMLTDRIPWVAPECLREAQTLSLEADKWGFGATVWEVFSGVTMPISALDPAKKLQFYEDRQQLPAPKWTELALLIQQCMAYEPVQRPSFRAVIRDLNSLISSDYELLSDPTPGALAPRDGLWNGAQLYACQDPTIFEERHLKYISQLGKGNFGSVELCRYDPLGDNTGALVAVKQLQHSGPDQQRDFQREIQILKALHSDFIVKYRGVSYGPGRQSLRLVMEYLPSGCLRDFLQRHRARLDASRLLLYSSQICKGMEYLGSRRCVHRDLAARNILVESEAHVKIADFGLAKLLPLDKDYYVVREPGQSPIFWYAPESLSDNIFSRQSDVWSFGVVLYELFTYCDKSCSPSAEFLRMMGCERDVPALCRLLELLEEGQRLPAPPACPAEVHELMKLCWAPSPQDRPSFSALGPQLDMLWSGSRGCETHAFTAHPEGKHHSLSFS

Work on `CC1CCCN1C(=O)c1nc(C(=O)NCC(C)(C)O)sc1-c1ccc(C(O)(C(F)(F)F)C(F)(F)F)c(Cl)c1Cl` (stereo not drawn) [JNJ-61803534] yielded an activity at 1 µM (JAK3(h)) of 109%, an activity at 10 µM (JAK3(h)) of 114% and an IC50 [1] of over 30 µM. For the same compound, the inhibition at 1 µM (5-HT5A (h)) was under 10%, the inhibition at 10 µM (5-HT5A (h)) was under 10% and the inhibition at 1 µM (D2S (h)) was under 10%. It also gave an inhibition at 10 µM (D2S (h)) of under 10%, an IC50 (AR) of over 1.5 µM and an EC50 (ADRA1A; agonist) of over 10 µM. For the same compound, the IC50 (ADRA1A; antagonist) was over 10 µM, the EC50 (M3; agonist) was over 10 µM and the IC50 (M3; antagonist) was over 10 µM. The EC50 (5HT1B; agonist) was over 12.5 µM, the IC50 (5HT1B; antagonist) was over 12.5 µM and the EC50 (ETA; agonist) was over 10 µM. For the same compound, the IC50 (ETA; antagonist) was over 10 µM, the IC50 (VDR) was over 1.5 µM and the “% Inhibition at 1 µM” value (Cl- channel; 1 µM) was 10.5%. The “% Inhibition at 10 µM” value (Cl- channel; 10 µM) was 86.4%, the EC50 (5HT7; agonist) was over 12.5 µM and the IC50 (5HT7; antagonist) was over 12.5 µM. For the same compound, the thymus finding (dogs) was “increase in medium-sized thymocytes/mitoses”, the inhibition at 1 µM (5HT2B) was under 10% and the inhibition at 10 µM (5HT2B) was 36.8%. For the same compound, the activity at 1 µM (Blk(h)) was 95%, the activity at 10 µM (Blk(h)) was 102% and the EC50 (5HT2A; agonist) was over 10 µM. It also gave an IC50 (5HT2A; antagonist) of over 10 µM, an inhibition at 1 µM (NE-T transporter (h)) of under 10% and an inhibition at 10 µM (NE-T transporter (h)) of under 10%. It also gave an activity at 1 µM (IKKβ(h)) of 75%, an activity at 10 µM (IKKβ(h)) of 138% and an EC50 (D1; agonist) of over 12.5 µM. The IC50 (D1; antagonist) was over 12.5 µM, the inhibition at 1 µM (A1 (h)) was under 10% and the inhibition at 10 µM (A1 (h)) was under 10%. It also gave an EC50 (ADRB2; agonist) of over 12.5 µM, an IC50 (ADRB2; antagonist) of over 12.5 µM and an inhibition at 1 µM (5-HT2A (h)) of under 10%. The inhibition at 10 µM (5-HT2A (h)) was under 10%, the activity at 1 µM (PKCα(h)) was 102% and the activity at 10 µM (PKCα(h)) was 99%. For the same compound, the IC50 (FXR) was over 1.5 µM, the IC50 (RARα) was over 1.5 µM and the activity at 1 µM (NEK2(h)) was 102%. The activity at 10 µM (NEK2(h)) was 108%, the EC50 (5HT6; agonist) was over 12.5 µM and the IC50 (5HT6; antagonist) was over 12.5 µM. For the same compound, the activity at 1 µM (PKCβI(h)) was 97%, the activity at 10 µM (PKCβI(h)) was 87% and the inhibition at 1 µM (5-HT7 (h)) was under 10%. For the same compound, the inhibition at 10 µM (5-HT7 (h)) was under 10%, the inhibition at 1 µM (CCKA (h) (CCK1)) was under 10% and the inhibition at 10 µM (CCKA (h) (CCK1)) was under 10%. The inhibition at 1 µM (A3 (h); 1 µM) was under 10%, the “% Inhibition at 10 µM” value (A3 (h); 10 µM) was 45.2% and the inhibition at 10 µM (A3 (h); 10 µM) was over 50%.
